Source: US12215090B2, “Agents and methods for treating dysproliferative diseases” (Memorial Sloan-kettering Cancer Center, priority 2018, dated 2025)
Where two headings read alike, the source gives them in different places.

Key:
Format in all cases: cell-based
[1] = tested on: KOPTK1 cells, a murine T-cell ALL cell line; test: cell viability assay, KOPTK1 cells; details: Mus musculus
DHL6 cells = test: cell viability assay, DHL6 cells
Excerpt: (§1) FIGS. 1A, 1B, 1C, and 1D show the activity of compounds of the invention, compared to (−)-CR31B and (+)-CR31B in cell viability assays using (A) DHL6 cells, (B) Jurkat cells, (C) DoHH2 cells, and (D) LY8 cells. […] The following table reports the IC50s (in nM) for each lymphoma and leukemia cell type.

Jurkat cells = test: cell viability assay, Jurkat cells
Excerpt: as §1

DoHH2 cells = test: cell viability assay, DoHH2 cells
Excerpt: as §1

LY8 cells = test: cell viability assay, LY8 cells
Excerpt: as §1

DHL8 cells = test: cell viability assay, DHL8 cells
Excerpt: as §1

[2] = tested on: MOLT-4 (human acute lymphoblastic leukemia [ALL]); test: cell viability assay, MOLT-4 cancer cells; details: MOLT-4 T-ALL cells, 72 hours of exposure, cell titer glow reagent
Protocol: (§2) The biological activity of compounds of the invention was evaluated in several assays. In a cell viability assay using cancer and normal cells lines MOLT-4 (human acute lymphoblastic leukemia [ALL]) and MRC-5 (human lung fibroblast), respectively, cell viability was assessed after 72 hours of exposure to a range of concentrations, using cell titer glow reagent from Promega to assess viability.

[3] = tested on: MRC-5 (human lung fibroblast); test: cell viability assay, MRC-5 normal cells; details: MRC5, MRC-5 non-cancer cells, 72 hours of exposure, cell titer glow reagent
Protocol: as §2

Compound	IC50 [1]	IC50 (DHL6 cells)	IC50 (Jurkat cells; Homo sapiens)	IC50 (DoHH2 cells; Homo sapiens, DOHH-2)	IC50 (LY8 cells)	IC50 (DHL8 cells)	IC50 [2]	IC50 [3]	IC50 (Jurkat cells)	IC50 (DoHH2 cells)
COc1cc(OC)c2c(c1)OC1(c3ccc(O)cc3)C(c3ccccc3)C(C(N)=O)C(O)C21O (racemic) [Racemic mixture of Compounds 8 and 9, 1,8b-dihydroxy-3a-(4-hydroxyphenyl)-6,8-dimethoxy-3-phenyl-2,3-dihydro-1H-cyclopenta[b]benzofuran-2-carboxamide]	10 nM	947 nM	1730 nM	987 nM	2910 nM	1040 nM	–	–	–	–
CONC(=O)[C@H]1[C@@H](O)[C@@]2(O)c3c(OC)cc(OC)cc3O[C@@]2(c2ccc(O)cc2)[C@@H]1c1ccccc1 [Compound 1, (1R,2R,3S,3aR,8bS)-1,8b-dihydroxy-3a-(4-hydroxyphenyl)-N,6,8-trimethoxy-3-phenyl-2,3-dihydro-1Hcyclopenta[b]benzofuran-2-carboxamide]	50 nM	51.5 nM	63 nM	36.7 nM	38.9 nM	74.9 nM	5.3 nM	> 1000 nM	–	–
(+)-CR31B [reference compound]	–	~4300 nM	–	–	16500 nM	7480 nM	–	–	~3110 nM	2530 nM
(−)-CR31B [reference compound]	–	7.62 nM	–	–	5.93 nM	7.21 nM	–	–	6.42 nM	7.3 nM
